Measured values published in patent publication US6133292A, “Diaryl-5-alkyl-5-methyl-2-(5H)-furanones as selective cyclooxygenase-2-inhibitors” (Merck Frosst Canada & Co., priority 1998, dated 2000).

test: Pharmacokinetics in rats (half-life); format: in vivo, rat (male Sprague Dawley); settings: rat, blood, read-out: T 1/2 in Rats (converted)
Excerpt: Per Os Pharmacokinetics in Rats--Procedure:
The animals are housed, fed and cared for according to the Guidelines of the Canadian Council on Animal Care. Male Sprague Dawley rats (325-375 g) are fasted overnight prior to each PO blood level study. The rats are placed in the restrainer one at a time and the box firmly secured. The zero blood sample is obtained by nicking a small (1 mm or less) piece off the tip of the tail. The tail is then stroked with a firm but gentle motion from the top to the bottom to milk out the blood. Approximately 1 mL of blood is collected into a heparirnized vacutainer tube.
Compounds are prepared as required, in a standard dosing volume of 10 mL/kg, and administered orally by passing a 16 gauge, 3" gavaging needle into the stomach. Subsequent bleeds are taken in the same manner as the zero bleed except that there is no need to nick the tail again. The tail is cleaned with a piece of gauze and milked/stroked as described above into the appropriately labelled tubes.
Immediately after sampling, blood is centrifuged, separated, put into clearly marked vials and stored in a freezer until analysed. Typical time points for determination of rat blood levels after PO dosing are 0, 15 min, 30 min, 1 h, 2 h, 4 h, and 6 h.
After the 4 hr time point bleed, food is provided to the rats ad libitum. Water is provided at all times during the study.
The following vehicles may be used in PO rat blood level determinations:
Compounds for PO blood levels can be in suspension form. For better dissolution, the solution can be placed in a sonicator for approximately 5 minutes.
For analysis, aliquots are diluted with an equal volume of acetonitrile and centrifuged to remove protein precipitate. The supernatant is injected directly onto a C-18 HPLC column with UV detection. Quantitation is done relative to a clean blood sample spiked with a known quantity of drug.
Intravenous Pharmacokinetics in Rats--Procedure
The animals are housed, fed and cared for according to the Guidelines of the Canadian Council on Animal Care. Male Sprague Dawley (325-375 g) rats are placed in plastic shoe box cages with a suspended floor, cage top, water bottle and food. The compound is prepared as required, in a standard dosing volume of 1 mL/kg.
Rats are bled for the zero blood sample and dosed under CO2 sedation. The rats, one at a time, are placed in a primed CO2 chamber and taken out as soon as they have lost their righting reflex. The rat is then placed on a restraining board, a nose cone with CO2 delivery is placed over the muzzle and the rat restrained to the board with elastics. With the use of forceps and scissors, the jugular vein is exposed and the zero sample taken, followed by a measured dose of compound which is injected into the jugular vein. Light digital pressure is applied to the injection site, and the nose cone is removed. The time is noted. This constitutes the zero time point.
The 5 min bleed is taken by nicking a piece (1-2 mm) off the tip of the tail. The tail is then stroked with a firm but gentle motion from the top of the tail to the bottom to milk the blood out of the tail. Approximately 1 mL of blood is collected into a heparinized collection vial. Subsequent bleeds are taken in the same fashion, except that there is no need to nick the tail again. The tail is cleaned with a piece of gauze and bled, as described above, into the appropriate labelled tubes. Typical time points for determination of rat blood levels after I.V. dosing are either a) 0, 5 min, 15 min, 30 min, 1 h, 2 h, 6 h, or b) 0, 5 min, 30 min, 1 h, 2 h, 4 h, 6 h.
The following vehicles may be used in IV rat blood level determinations:
DMSO (dimethylsulfoxide): Restricted to a dose volume of 0.1 mL per animal
PEG 200: Not more than 60% mixed with 40% sterile water --1 mL/kg
With Dextrose, either sodium bicarbonate or sodium carbonate can be added if the solution is cloudy. […]

half-life [h]	SMILES
3.6	CC[C@@]1(C)OC(=O)C(c2ccc(F)c(F)c2)=C1c1ccc(S(C)(=O)=O)cc1 [h, (5R)-3-(3,4-difluorophenyl)-5-ethyl-5-methyl-4-[4-(methylsulfonyl)phenyl] -2,5-dihydro-2-furanone]
4.8	CC[C@]1(C)OC(=O)C(c2ccc(F)c(F)c2)=C1c1ccc(S(C)(=O)=O)cc1 [i, (5S)-3-(3,4-difluorophenyl)-5-ethyl-5-methyl-4-[4-(methylsulfonyl)phenyl] -2,5-dihydro-2-furanone]
3	CCC1(C)OC(=O)C(c2ccc(F)cc2)=C1c1ccc(S(C)(=O)=O)cc1 (centres unmarked) [c, 5-ethyl-3-(4-fluorophenyl)-5-methyl-4-[4-(methylsulfonyl)phenyl]-2,5-dihydro-2-furanone]

The next lines start with the compound.

SMILES	half-life [h]
CCCC1(C)OC(=O)C(c2ccc(F)cc2)=C1c1ccc(S(C)(=O)=O)cc1 (centres unmarked) [n, 3-(4-fluorophenyl)-5-methyl-4-[4-(methylsulfonyl)phenyl]-5-propyl-2,5-dihydro-2-furanone]	~1
CC1(C)OC(=O)C(c2ccc(F)cc2)=C1c1ccc(S(C)(=O)=O)cc1 [Compound T3-1, 3-(4-fluorophenyl)-5,5-dimethyl-4-[4-(methylsulfonyl)phenyl]-2,5-dihydro-2-furanone, reference compound]	> 24
